Our source for the IC50 and Activity values is ChEMBL document CHEMBL1152756, “Photodynamic effects of novel 5,15-diaryl-tetrapyrrole derivatives on human colon carcinoma cells” (Bioorg Med Chem, 2009).

Assay [1] deals with HCT-116. The experiment in a line: Phototoxicity against human HCT116 cells […] after 24 hrs irradiated with tungsten-halogen white light for 2 hrs followed by incubation in drug free medium for 24 hrs by MTT assay. The note with it: HCT-116, light or radiation study. The assay is classed as functional, cell-based.
In assay [2] the test system is HCT-116. In words: Phototoxicity against human HCT116 cells […] after 24 hrs irradiated with tungsten-halogen white light for 2 hrs followed by incubation in drug free medium for 24 hrs by MTT assay in presence of nitric oxide synthase inhibitor L-NMMA. The class given is functional, cell-based. The note with it: HCT-116, light or radiation study.

Assay [3] deals with HCT-116. The experiment in a line: Induction of apoptosis in human HCT116 cells assessed as decrease in Bcl2 protein expression at IC50 after 24 hrs irradiated with tungsten-halogen white light for 2 hrs followed by incubation in drug free medium for 24 hrs […]. The assay is classed as functional, cell-based.
Assay [4] deals with HCT-116. In words: Induction of apoptosis in human HCT116 cells assessed as decrease in survivin protein expression at IC50 after 24 hrs irradiated with tungsten-halogen white light for 2 hrs followed by incubation in drug free medium for 24 hrs […]. The class given is functional, cell-based. For orientation: Flow cytometry measures light scatter and fluorescence of single cells or particles in a stream.

The subject of assay [5] is HCT-116. The experiment in a line: Induction of apoptosis in human HCT116 cells assessed as increase in Bax protein expression at IC50 after 24 hrs irradiated with tungsten-halogen white light for 2 hrs followed by incubation in drug free medium for 24 hrs […]. The assay is classed as functional, cell-based.
Assay [6] relates to HCT-116. The experiment in a line: Cell cycle arrest in human HCT116 cells assessed as accumulation at G1 phase at IC50 after 24 hrs irradiated with tungsten-halogen white light for 2 hrs followed by incubation in drug free medium for 24 hrs by flow cytometry. The assay is classed as functional.
Assay [7] concerns HCT-116. The experiment in a line: Cell cycle arrest in human HCT116 cells assessed as accumulation at S phase at IC50 after 24 hrs irradiated with tungsten-halogen white light for 2 hrs followed by incubation in drug free medium for 24 hrs by flow cytometry. The class given is functional.
The subject of assay [8] is HCT-116. The experiment in a line: Cell cycle arrest in human HCT116 cells assessed as accumulation at G2/M phase at IC50 after 24 hrs irradiated with tungsten-halogen white light for 2 hrs followed by incubation in drug free medium for 24 hrs by flow cytometry. The assay is classed as functional.
Assay [9] relates to HCT-116. The experiment in a line: Induction of ROS generation in human HCT116 cells at IC50 after 24 hrs irradiated with tungsten-halogen white light for 2 hrs followed by incubation in drug free medium for 24 hrs by flow cytometry. The class given is functional, cell-based.
Assay [10] relates to HCT-116. The experiment in a line: Induction of NO radical generation in human HCT116 cells at IC50 after 24 hrs irradiated with tungsten-halogen white light for 2 hrs followed by incubation in drug free medium for 24 hrs. The assay is classed as functional, cell-based.
For assay [11], the system named is HCT-116. In words: Phototoxicity against human HCT116 cells […] after 24 hrs irradiated with LED red light for 2 hrs followed by incubation in drug free medium for 24 hrs by MTT assay. The class given is functional, cell-based. The note with it: HCT-116, light or radiation study.
Assay [12] has as its system HCT-116. The experiment in a line: Induction of apoptosis in human HCT116 cells at IC50 after 24 hrs irradiated with tungsten-halogen white light for 2 hrs followed by incubation in drug free medium for 24 hrs using annexin V-FITC staining by FACS. The assay is classed as functional, cell-based.

Converted amounts (≈) assume the structure as drawn. The source made the active and inactive calls. No cut-off for these calls is given here.

The term IC50 denotes the concentration needed to halve the response being measured. As for `Oc1cccc(-c2c3nc(cc4ccc([nH]4)c(-c4ccccc4)c4nc(cc5ccc2[nH]5)C=C4)C=C3)c1`, the concentration for half-maximal inhibition (IC50) amounted to 0.683 ng/mL (≈ 1.43 nM) in the assay on HCT-116 [1], 0.482 ng/mL in the assay with HCT-116 [2] and 3.96 nM in the assay on HCT-116 [11]. For the same molecule, the outcome with HCT-116 [3], with HCT-116 [4], in the assay on HCT-116 [5], in the assay with HCT-116 [9], in the assay on HCT-116 [10] and in the assay with HCT-116 [12] was Active. Besides, the figures for the Activity with HCT-116 [6], in the assay with HCT-116 [7] and in the assay with HCT-116 [8] were 49.03%, 21.28% and 29.69%, respectively.

Turning to `Oc1cccc(-c2c3nc(cc4ccc([nH]4)c(-c4ccccc4)c4nc(cc5ccc2[nH]5)C=C4)CC3)c1`, in the assay with HCT-116 [11], the IC50 was 1.32 nM.

On to `C1=Cc2nc1cc1ccc([nH]1)c(-c1ccccc1)c1nc(cc3ccc([nH]3)c2-c2ccccc2)C=C1`, for which the outcome in the assay with HCT-116 [3], in the assay on HCT-116 [4], in the assay with HCT-116 [5] and in the assay on HCT-116 [12] was Active. Moreover, the Activity was 52.83% with HCT-116 [6], 17.89% in the assay on HCT-116 [7] and 29.27% with HCT-116 [8].

For the molecule `Oc1cccc(-c2c3nc(c(-c4cccc(O)c4)c4ccc([nH]4)c(-c4cccc(O)c4)c4nc(c(-c5cccc(O)c5)c5ccc2[nH]5)CC4)C=C3)c1` [TEMOPORFIN], the result with HCT-116 [3], in the assay on HCT-116 [4], in the assay with HCT-116 [5] and in the assay on HCT-116 [12] was Active. For the same molecule, the Activity is on record as 51.53% with HCT-116 [6], 21.29% in the assay with HCT-116 [7] and 27.17% in the assay with HCT-116 [8]. Also, the IC50 with HCT-116 [11] stood at 41 nM.

With `COc1cccc(-c2c3nc(cc4ccc([nH]4)c(-c4ccccc4)c4nc(cc5ccc2[nH]5)C=C4)C=C3)c1`, the result in the assay with HCT-116 [3], in the assay with HCT-116 [4], with HCT-116 [5] and in the assay with HCT-116 [12] was Active. The Activity in the assay with HCT-116 [6] was 52.4%; in the assay with HCT-116 [7], 17.93%; in the assay on HCT-116 [8], 29.6%.
